For the assay, the target named is T1, TFEB (Homo sapiens, UniProt P19484).
T1 sequence (P19484 1-476): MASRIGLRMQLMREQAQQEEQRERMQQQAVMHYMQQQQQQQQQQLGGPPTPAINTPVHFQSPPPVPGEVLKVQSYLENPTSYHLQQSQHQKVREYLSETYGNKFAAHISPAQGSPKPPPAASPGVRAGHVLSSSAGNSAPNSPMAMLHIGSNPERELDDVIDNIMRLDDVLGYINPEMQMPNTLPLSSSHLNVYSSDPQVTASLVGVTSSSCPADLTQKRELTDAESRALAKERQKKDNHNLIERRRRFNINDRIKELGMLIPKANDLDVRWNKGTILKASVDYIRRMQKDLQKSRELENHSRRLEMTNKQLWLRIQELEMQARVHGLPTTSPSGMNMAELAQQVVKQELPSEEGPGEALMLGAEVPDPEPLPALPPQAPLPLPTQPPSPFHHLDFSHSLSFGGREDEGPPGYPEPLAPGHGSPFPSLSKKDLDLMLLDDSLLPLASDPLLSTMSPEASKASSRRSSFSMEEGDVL
The experiment in a line: Tfeb-Translocation Assay HEK-293T-oEX-Tfeb-GFP Cell Line. The settings on record: HEK-293T-oEX-TFEB-GFP cells; translocation positive cells ratio; read-out: TFEB Translocation EC50. In kind it is cell-based. Here is the method:
Tfeb-Translocation Assay HEK-293T-oEX-Tfeb-GFP Cell Line
• 1). Added 2×10^6 cell into a T75 flask with 15 mL DiVEM medium (with 10% FBS, 1% PS, 1×GLUTAMAX, 1×MEM NEAA, 1×HEPES Buffer Solution and 5 ug/mL blasticidin). • 2). Culturing for 48-72 hours. Cells in logarithmic growth phase were taken for experiment. The other cells were passaged as described in step 1. • 3). Seeded 1×10^4 cells/30 μL/well into 384-well plate (BD 356663). Cultured overnight at 37° C. & 5% CO2 incubator. • 4). Note: Used cells <10 passage
• 1). Compounds were firstly diluted by DMSO to the stock needed (10 mM), and aliquoted and stored at −20° C. • 2). Took one aliquot each time and made 3-fold or 2-fold dilutions as indicated, total 10 doses plus one DMSO control well in the source plate. • 3). Added 150 or 90 nL/well compounds solution to the assay plate by ECHO and incubated for 6 or 18 hours respectively at 37° C. & 5% CO2 incubator.
• 1). Added 30 uL 8% PFA into the wells and incubated 20 min at room temperature. • 2). Discarded the medium, washed the wells twice with DPBS to eliminate foam and bubbles in the well.
• 1). Diluted Hoechest-333824 in DPBS to get 2 μg/mL solution and added 30 uL/well into assay plate, incubated at room temperature for 20 mins. • 2). Discarded the supernatant, washed the wells twice with DPBS to eliminate foam and bubbles in the well. Then added DPBS 20 uL/well.
3). Scanned Plate by Operetta.
• 1). Reference compound: Torin 1 • 2). Test compounds: C1, C2, C3, C4, C5, C6. • 3). Diluted compounds in 384 LDV-dilution plate according to the dilution plate map • 4). Compounds starting concentration: Torin 1: 300 nM and Test compounds: 50 uM.
• 1). Selected all nucleus by Operetta as ‘All Cells’ • 2). Calculated the EGFP average intensity inside the Nucleus region. • 3). Selected population that the EGFP mean intensity inside the Nucleus region>background as the EGFP-positive cells • 4). Selected the Surrounding region of the nucleus and calculated the EGFP mean intensity of the region • 5). Inside the EGFP-positive cell population, selected the cells with EGFP mean intensity inside the Nucleus region/the EGFP mean intensity inside the surrounding region=1.2 (This ratio could be slightly adjusted from time to time) as the Translocation positive cell. • 6). Outputted the ratio of Translocation positive cell/EGFP-positive cells as the Translocation Positive Ratio. • 7). Each time set the ratio of DMSO group (Control Group) as ˜15% and then normalized the compound group to the DMSO group.

As usually defined, the EC50 is the concentration that produces a half-maximal response.

On to “6-benzyl-2-methyl-N-((4-methyloxazol-2-yl)methyl)-5-oxo-5,6-dihydro-1,6-naphthyridine-3-carboxamide [Example 66]”, for which the EC50 fell in the range of 0.1 to 1 µM.
The figure for `Cc1nc2ccn(Cc3cccnc3)c(=O)c2cc1C(=O)NCc1ccc(Cl)cc1` [Comparator 1, reference compound] is 1 to 10 µM.
To `Cc1ccc(CNC(=O)c2cc3c(=O)n(Cc4ccc(F)cn4)ccc3nc2C)o1` [Example 2, 6-((5-fluoropyridin-2-yl)methyl)-2-methyl-N-((5-methylfuran-2-yl)methyl)-5-oxo-5,6-dihydro-1,6-naphthyridine-3-carboxamide] belongs 0.1 to 1 µM; to `Cc1cnc(CNC(=O)c2cc3c(=O)n(Cc4ccccc4)ccc3nc2C)o1` [Example 3, 6-benzyl-2-methyl-N-((5-methyloxazol-2-yl)methyl)-5-oxo-5,6-dihydro-1,6-naphthyridine-3-carboxamide], 0.1 to 1 µM.
In the case of `Cc1ncc(CNC(=O)c2cc3c(=O)n(Cc4ccccc4)ccc3nc2C)o1` [Example 4, 6-benzyl-2-methyl-N-((2-methyloxazol-5-yl)methyl)-5-oxo-5,6-dihydro-1,6-naphthyridine-3-carboxamide], the EC50 lay in the range of 0.1 to 1 µM.
On to `Cc1nc2ccn(Cc3ccccc3)c(=O)c2cc1C(=O)NCc1cn(C)nn1` [Example 8, 6-benzyl-2-methyl-N-((1-methyl-11H-1,2,3-triazol-4-yl)methyl)-5-oxo-5,6-dihydro-1,6-naphthyridine-3-carboxamide], for which the EC50 lay in the range of 1 to 10 µM.
For the compound `Cc1nc2ccn(Cc3ccccc3)c(=O)c2cc1C(=O)NCc1cnn(C)n1` [Example 9, 6-benzyl-2-methyl-N-((2-methyl-2H-1,2,3-triazol-4-yl)methyl)-5-oxo-5,6-dihydro-1,6-naphthyridine-3-carboxamide], the EC50 fell in the range of 0.1 to 1 µM.
For the compound `Cc1noc(CNC(=O)c2cc3c(=O)n(Cc4ccccc4)ccc3nc2C)n1` [Example 10, 6-benzyl-2-methyl-N-((3-methyl-1,2,4-oxadiazol-5-yl)methyl)-5-oxo-5,6-dihydro-1,6-naphthyridine-3-carboxamide], the EC50 was 0.1 to 1 µM.
The figure for `Cc1nc2ccn(CC3CCCO3)c(=O)c2cc1C(=O)NCc1ccc(Cl)cc1` (stereo not shown) [Example 11, N-(4-chlorobenzyl)-2-methyl-5-oxo-6-((tetrahydrofuran-2-yl)methyl)-5,6-dihydro-1,6-naphthyridine-3-carboxamide] is 1 to 10 µM; for `Cc1nc2ccn(Cc3ccccc3)c(=O)c2cc1C(=O)NCc1ccncc1` [Example 12, 6-benzyl-2-methyl-5-oxo-N-(pyridin-4-ylmethyl)-5,6-dihydro-1,6-naphthyridine-3-carboxamide] it is 1 to 10 µM; for `Cc1nnc(CNC(=O)c2cc3c(=O)n(Cc4ccccc4)ccc3nc2C)o1` [Example 13, 6-benzyl-2-methyl-N-((5-methyl-1,3,4-oxadiazol-2-yl)methyl)-5-oxo-5,6-dihydro-1,6-naphthyridine-3-carboxamide] it is 1 to 10 µM.
On to `Cc1nc2ccn(Cc3ccccc3)c(=O)c2cc1C(=O)NCc1ccn(C)n1` [Example 14, 6-benzyl-2-methyl-N-((1-methyl-1H-pyrazol-3-yl)methyl)-5-oxo-5,6-dihydro-1,6-naphthyridine-3-carboxamide], for which the EC50 is 0.1 to 1 µM.
To `Cc1nc2ccn(Cc3ccccc3)c(=O)c2cc1C(=O)NCc1cnn(C)c1` [Example 15, 6-benzyl-2-methyl-N-((1-methyl-1H-pyrazol-4-yl)methyl)-5-oxo-5,6-dihydro-1,6-naphthyridine-3-carboxamide] belongs 0.1 to 1 µM; to `Cc1nc2ccn(Cc3ccccc3)c(=O)c2cc1C(=O)NCc1ccccc1F` [Example 16, 6-benzyl-N-(2-fluorobenzyl)-2-methyl-5-oxo-5,6-dihydro-1,6-naphthyridine-3-carboxamide], 0.1 to 1 µM; to `Cc1nc(CNC(=O)c2cc3c(=O)n(Cc4ccccc4)ccc3nc2C)no1` [Example 19, 6-benzyl-2-methyl-N-((5-methyl-1,2,4-oxadiazol-3-yl)methyl)-5-oxo-5,6-dihydro-1,6-naphthyridine-3-carboxamide], 1 to 10 µM.
To `COCCn1ccc2nc(C)c(C(=O)NCc3ccc(Cl)cc3)cc2c1=O` [Example 20, N-(4-chlorobenzyl)-6-(2-methoxyethyl)-2-methyl-5-oxo-5,6-dihydro-1,6-naphthyridine-3-carboxamide] belongs 1 to 10 µM; to `COCCn1ccc2nc(C)c(C(=O)NCc3cnc(C)o3)cc2c1=O` [Example 21, 6-(2-methoxyethyl)-2-methyl-N-((2-methyloxazol-5-yl)methyl)-5-oxo-5,6-dihydro-1,6-naphthyridine-3-carboxamide], at least 10 µM; to `Cc1nc2ccn(Cc3ccccc3)c(=O)c2cc1C(=O)NCc1ccc(Cl)cc1` [Example 22, 6-benzyl-N-(4-chlorobenzyl)-2-methyl-5-oxo-5,6-dihydro-1,6-naphthyridine-3-carboxamide], under 0.1 µM.
Take `Cc1nc2ccn(Cc3ccccc3)c(=O)c2cc1C(=O)NCc1cccnc1` [Example 23, 6-benzyl-2-methyl-5-oxo-N-(pyridin-3-ylmethyl)-5,6-dihydro-1,6-naphthyridine-3-carboxamide]: the EC50 is 0.1 to 1 µM.
For the compound `COc1ccc(CNC(=O)c2cc3c(=O)n(Cc4ccccc4)ccc3nc2C)cc1` [Example 24, 6-benzyl-N-(4-methoxybenzyl)-2-methyl-5-oxo-5,6-dihydro-1,6-naphthyridine-3-carboxamide], the EC50 is 1 to 10 µM.
As for `Cc1nc2ccn(Cc3ccccc3)c(=O)c2cc1C(=O)NCc1ccc(C(F)(F)F)cc1` [Example 25, 6-benzyl-2-methyl-5-oxo-N-(4-(trifluoromethyl)benzyl)-5,6-dihydro-1,6-naphthyridine-3-carboxamide], the EC50 is at least 10 µM.
The figure for `Cc1nc2ccn(CC3CCCCO3)c(=O)c2cc1C(=O)NCc1ccc(Cl)cc1` (stereo not shown) [Example 26, N-(4-chlorobenzyl)-2-methyl-5-oxo-6-((tetrahydro-2H-pyran-2-yl)methyl)-5,6-dihydro-1,6-naphthyridine-3-carboxamide] is 0.1 to 1 µM; for `Cc1nc2ccn(CC3CCO3)c(=O)c2cc1C(=O)NCc1ccc(Cl)cc1` (stereo not shown) [Example 27, N-(4-chlorobenzyl)-2-methyl-6-(oxetan-2-ylmethyl)-5-oxo-5,6-dihydro-1,6-naphthyridine-3-carboxamide] it is 1 to 10 µM; for `Cc1nc2ccn(Cc3ccccc3)c(=O)c2cc1C(=O)NC(C)c1ccccn1` (stereo not shown) [Example 28, 6-benzyl-2-methyl-5-oxo-N-(1-(pyridin-2-yl)ethyl)-5,6-dihydro-1,6-naphthyridine-3-carboxamide] it is at least 10 µM.
For `Cc1nc2ccn(Cc3ccccc3)c(=O)c2cc1C(=O)NCc1ncccn1` [Example 29, 6-benzyl-2-methyl-5-oxo-N-(pyrimidin-2-ylmethyl)-5,6-dihydro-1,6-naphthyridine-3-carboxamide], the EC50 was at least 10 µM.
In the case of `COCCn1ccc2nc(C)c(C(=O)NCc3ccccn3)cc2c1=O` [Example 30, 6-(2-methoxyethyl)-2-methyl-5-oxo-N-(pyridin-2-ylmethyl)-5,6-dihydro-1,6-naphthyridine-3-carboxamide], the EC50 lay in the range of 1 to 10 µM.
For the compound `Cc1nc2ccn(Cc3ccccc3)c(=O)c2cc1C(=O)NCc1cnccn1` [Example 32, 6-benzyl-2-methyl-5-oxo-N-(pyrazin-2-ylmethyl)-5,6-dihydro-1,6-naphthyridine-3-carboxamide], the EC50 was in the range of 0.1 to 1 µM.
To `Cc1nc2ccn(Cc3ccccc3)c(=O)c2cc1C(=O)NCc1cccnn1` [Example 33, 6-benzyl-2-methyl-5-oxo-N-(pyridazin-3-ylmethyl)-5,6-dihydro-1,6-naphthyridine-3-carboxamide] belongs 1 to 10 µM.

Values taken from US20250281483A1, “TRANSCRIPTION FACTOR EB ACTIVATORS AND USES THEREOF” (Astellas Engineered Small Molecules US, Incorporated, priority 2022, published 2025).
